Reference: paper PMC4854315, “Discovery of a novel allosteric inhibitor-binding site in ERK5: comparison with the canonical kinase hinge ATP-binding site” (Acta Crystallographica. Section D, Structural Biology, 2016)

How the values were obtained:
Test in all cases: Z'-LYTE kinase panel
Type in all cases: biochemical
[1] = target: T1, ABL1 (Homo sapiens, UniProt P00519)
T1 construct: purchased ThermoFisher (SelectScreen, Z'-LYTE)
How it was run: (§1)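 Standard Z′-LYTE protocol applied. Compound fixed at 10 µM. Output: % inhibition. Panel size 225 kinases.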

[2] = target: T2, CAMK2A (CaMKII alpha) (Homo sapiens, UniProt Q9UQM7)
T2 construct: purchased ThermoFisher (SelectScreen, Z'-LYTE)
How it was run: as §1

[3] = target: T3, CSNK2A2 (CK2 alpha 2) (Homo sapiens, UniProt P19784)
T3 construct: purchased ThermoFisher (SelectScreen, Z'-LYTE)
T3 sequence (P19784 whole entry): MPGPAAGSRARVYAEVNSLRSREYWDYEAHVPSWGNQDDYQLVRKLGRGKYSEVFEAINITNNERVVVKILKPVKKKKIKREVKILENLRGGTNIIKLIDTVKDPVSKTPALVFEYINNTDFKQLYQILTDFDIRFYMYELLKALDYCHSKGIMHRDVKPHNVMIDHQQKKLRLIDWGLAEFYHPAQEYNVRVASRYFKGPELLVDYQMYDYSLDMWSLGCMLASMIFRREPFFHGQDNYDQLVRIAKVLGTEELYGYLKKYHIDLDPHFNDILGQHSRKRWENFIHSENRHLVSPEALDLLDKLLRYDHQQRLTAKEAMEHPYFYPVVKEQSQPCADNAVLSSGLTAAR
How it was run: as §1

[4] = target: T4, DYRK4 (Homo sapiens, UniProt Q9NR20)
T4 construct: purchased ThermoFisher (SelectScreen, Z'-LYTE)
T4 sequence (Q9NR20 1-520): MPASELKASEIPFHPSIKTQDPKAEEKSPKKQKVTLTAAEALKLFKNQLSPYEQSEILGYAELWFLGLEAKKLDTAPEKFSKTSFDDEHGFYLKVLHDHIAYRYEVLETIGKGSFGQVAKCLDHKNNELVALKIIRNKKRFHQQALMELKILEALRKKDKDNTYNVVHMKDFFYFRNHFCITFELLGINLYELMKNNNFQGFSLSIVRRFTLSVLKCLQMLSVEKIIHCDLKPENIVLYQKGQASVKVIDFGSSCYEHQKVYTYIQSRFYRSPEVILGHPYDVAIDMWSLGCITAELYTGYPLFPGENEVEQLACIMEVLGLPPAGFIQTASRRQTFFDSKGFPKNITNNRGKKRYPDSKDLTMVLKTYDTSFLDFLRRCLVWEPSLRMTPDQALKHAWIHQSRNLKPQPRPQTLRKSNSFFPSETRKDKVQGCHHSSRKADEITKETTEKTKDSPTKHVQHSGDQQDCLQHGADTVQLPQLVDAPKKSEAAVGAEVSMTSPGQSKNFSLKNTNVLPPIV
How it was run: as §1

[5] = target: T5, EPHB2 (Homo sapiens, UniProt P29323)
T5 construct: purchased ThermoFisher (SelectScreen, Z'-LYTE)
T5 sequence (P29323 19-1055): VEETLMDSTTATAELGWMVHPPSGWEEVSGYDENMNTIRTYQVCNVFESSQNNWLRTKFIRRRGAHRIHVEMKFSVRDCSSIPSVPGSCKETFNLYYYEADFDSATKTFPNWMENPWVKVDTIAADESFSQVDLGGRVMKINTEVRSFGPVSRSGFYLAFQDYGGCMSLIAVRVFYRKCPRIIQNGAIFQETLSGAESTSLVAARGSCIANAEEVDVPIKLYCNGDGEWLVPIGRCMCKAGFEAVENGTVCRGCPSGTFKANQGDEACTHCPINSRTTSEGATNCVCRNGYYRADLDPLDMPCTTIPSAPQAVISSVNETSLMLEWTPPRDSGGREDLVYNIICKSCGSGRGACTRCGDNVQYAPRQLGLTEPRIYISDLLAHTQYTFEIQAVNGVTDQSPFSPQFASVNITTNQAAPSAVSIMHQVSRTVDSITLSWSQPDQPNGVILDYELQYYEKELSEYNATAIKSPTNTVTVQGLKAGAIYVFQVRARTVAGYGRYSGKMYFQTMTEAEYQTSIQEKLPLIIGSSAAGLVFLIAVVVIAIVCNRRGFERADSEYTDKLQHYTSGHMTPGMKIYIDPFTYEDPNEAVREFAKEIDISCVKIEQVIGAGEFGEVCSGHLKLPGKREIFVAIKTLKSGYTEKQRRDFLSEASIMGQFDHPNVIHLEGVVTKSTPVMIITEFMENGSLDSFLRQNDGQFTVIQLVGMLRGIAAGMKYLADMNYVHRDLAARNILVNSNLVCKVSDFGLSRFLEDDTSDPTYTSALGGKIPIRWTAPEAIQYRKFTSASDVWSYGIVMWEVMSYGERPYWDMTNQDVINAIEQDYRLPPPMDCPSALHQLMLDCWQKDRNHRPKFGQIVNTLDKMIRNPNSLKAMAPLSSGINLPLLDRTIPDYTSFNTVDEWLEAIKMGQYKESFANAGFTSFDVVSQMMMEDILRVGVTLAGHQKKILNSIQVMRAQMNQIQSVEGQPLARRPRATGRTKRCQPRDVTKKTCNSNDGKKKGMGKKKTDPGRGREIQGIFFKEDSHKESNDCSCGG
How it was run: as §1

[6] = target: T6, PRKCA (PKC alpha) (Homo sapiens, UniProt P17252)
T6 construct: purchased ThermoFisher (SelectScreen, Z'-LYTE)
How it was run: as §1

[7] = target: T7, PRKCD (PKC delta) (Homo sapiens, UniProt Q05655)
T7 construct: purchased ThermoFisher (SelectScreen, Z'-LYTE)
T7 sequence (Q05655 whole entry): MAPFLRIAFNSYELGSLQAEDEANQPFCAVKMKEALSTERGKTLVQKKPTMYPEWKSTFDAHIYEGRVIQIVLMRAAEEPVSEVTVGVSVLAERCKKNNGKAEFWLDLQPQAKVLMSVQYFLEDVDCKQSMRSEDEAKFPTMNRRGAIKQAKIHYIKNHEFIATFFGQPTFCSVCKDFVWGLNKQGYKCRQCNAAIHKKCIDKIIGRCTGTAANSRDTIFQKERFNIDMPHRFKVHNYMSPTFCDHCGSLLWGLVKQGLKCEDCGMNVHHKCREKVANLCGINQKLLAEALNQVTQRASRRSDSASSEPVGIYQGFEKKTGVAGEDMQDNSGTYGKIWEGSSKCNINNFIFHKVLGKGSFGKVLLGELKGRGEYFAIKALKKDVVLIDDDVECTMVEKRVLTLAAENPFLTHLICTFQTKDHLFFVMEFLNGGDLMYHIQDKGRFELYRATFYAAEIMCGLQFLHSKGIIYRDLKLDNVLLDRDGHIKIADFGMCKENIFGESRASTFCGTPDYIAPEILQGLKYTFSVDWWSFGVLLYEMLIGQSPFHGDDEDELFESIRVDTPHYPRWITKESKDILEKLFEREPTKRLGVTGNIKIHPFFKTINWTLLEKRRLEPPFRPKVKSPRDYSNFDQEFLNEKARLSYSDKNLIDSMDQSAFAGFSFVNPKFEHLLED
How it was run: as §1

[8] = target: T8, PRKCH (PKC eta) (Homo sapiens, UniProt P24723)
T8 construct: purchased ThermoFisher (SelectScreen, Z'-LYTE)
T8 sequence (P24723 whole entry): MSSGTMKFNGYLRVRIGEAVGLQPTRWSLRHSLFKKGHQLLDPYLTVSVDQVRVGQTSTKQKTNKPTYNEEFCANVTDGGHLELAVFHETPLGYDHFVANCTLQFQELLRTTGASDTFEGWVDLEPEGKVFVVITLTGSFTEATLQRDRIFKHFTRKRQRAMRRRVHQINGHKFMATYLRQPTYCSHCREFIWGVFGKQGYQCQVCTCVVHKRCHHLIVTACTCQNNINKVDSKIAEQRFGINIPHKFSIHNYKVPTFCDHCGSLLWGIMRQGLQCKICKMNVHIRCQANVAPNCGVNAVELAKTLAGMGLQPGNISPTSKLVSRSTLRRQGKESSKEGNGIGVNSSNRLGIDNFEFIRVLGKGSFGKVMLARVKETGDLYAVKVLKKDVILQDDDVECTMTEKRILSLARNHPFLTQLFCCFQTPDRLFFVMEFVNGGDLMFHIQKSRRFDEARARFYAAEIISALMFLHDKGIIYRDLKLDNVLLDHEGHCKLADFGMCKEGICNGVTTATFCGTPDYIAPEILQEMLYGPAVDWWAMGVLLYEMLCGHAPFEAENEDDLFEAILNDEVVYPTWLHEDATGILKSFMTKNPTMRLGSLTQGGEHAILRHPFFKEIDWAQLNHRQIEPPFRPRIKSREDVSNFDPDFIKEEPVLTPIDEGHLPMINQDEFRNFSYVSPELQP
How it was run: as §1

[9] = target: T9, PRKCQ (PKC theta) (Homo sapiens, UniProt Q04759)
T9 construct: purchased ThermoFisher (SelectScreen, Z'-LYTE)
How it was run: as §1

[10] = target: T10, ROCK1 (Homo sapiens, UniProt Q13464)
T10 construct: purchased ThermoFisher (SelectScreen, Z'-LYTE)
T10 sequence (Q13464 whole entry): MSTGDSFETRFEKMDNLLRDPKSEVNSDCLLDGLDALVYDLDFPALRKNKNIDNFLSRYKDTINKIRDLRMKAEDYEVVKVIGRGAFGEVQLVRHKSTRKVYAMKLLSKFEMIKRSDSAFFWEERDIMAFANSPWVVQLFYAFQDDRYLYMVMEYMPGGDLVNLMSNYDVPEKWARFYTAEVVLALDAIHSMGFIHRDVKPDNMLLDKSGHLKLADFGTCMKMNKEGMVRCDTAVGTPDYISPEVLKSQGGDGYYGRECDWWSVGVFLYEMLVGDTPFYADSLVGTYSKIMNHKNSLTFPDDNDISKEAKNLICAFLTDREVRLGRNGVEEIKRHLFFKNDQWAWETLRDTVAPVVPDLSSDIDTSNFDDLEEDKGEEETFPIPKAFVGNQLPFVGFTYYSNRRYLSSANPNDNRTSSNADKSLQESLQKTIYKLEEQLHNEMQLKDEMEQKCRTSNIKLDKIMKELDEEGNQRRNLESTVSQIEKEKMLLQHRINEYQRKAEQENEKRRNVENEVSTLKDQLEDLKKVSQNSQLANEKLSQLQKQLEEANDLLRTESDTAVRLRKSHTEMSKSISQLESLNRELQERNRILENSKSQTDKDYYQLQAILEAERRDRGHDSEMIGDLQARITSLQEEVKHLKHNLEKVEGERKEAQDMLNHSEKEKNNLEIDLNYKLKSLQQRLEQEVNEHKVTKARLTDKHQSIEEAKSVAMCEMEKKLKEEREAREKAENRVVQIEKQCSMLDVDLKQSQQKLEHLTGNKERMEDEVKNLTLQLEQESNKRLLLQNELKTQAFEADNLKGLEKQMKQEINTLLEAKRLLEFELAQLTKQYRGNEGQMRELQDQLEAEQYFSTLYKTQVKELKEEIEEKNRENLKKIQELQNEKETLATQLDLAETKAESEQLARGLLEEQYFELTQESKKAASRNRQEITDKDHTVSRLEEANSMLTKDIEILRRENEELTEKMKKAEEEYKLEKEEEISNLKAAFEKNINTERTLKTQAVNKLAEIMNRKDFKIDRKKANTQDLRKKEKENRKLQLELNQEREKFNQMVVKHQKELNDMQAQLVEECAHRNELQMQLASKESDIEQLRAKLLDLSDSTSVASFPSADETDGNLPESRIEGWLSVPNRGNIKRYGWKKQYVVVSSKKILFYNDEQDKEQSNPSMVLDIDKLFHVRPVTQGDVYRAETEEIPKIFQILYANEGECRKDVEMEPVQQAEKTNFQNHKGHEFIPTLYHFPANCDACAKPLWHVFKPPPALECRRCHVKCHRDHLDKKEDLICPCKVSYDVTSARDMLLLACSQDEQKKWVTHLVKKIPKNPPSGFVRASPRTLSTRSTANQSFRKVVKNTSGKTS
How it was run: as §1

[11] = target: T11, SRPK1 (Homo sapiens, UniProt Q96SB4)
T11 construct: purchased ThermoFisher (SelectScreen, Z'-LYTE)
T11 sequence (Q96SB4 whole entry): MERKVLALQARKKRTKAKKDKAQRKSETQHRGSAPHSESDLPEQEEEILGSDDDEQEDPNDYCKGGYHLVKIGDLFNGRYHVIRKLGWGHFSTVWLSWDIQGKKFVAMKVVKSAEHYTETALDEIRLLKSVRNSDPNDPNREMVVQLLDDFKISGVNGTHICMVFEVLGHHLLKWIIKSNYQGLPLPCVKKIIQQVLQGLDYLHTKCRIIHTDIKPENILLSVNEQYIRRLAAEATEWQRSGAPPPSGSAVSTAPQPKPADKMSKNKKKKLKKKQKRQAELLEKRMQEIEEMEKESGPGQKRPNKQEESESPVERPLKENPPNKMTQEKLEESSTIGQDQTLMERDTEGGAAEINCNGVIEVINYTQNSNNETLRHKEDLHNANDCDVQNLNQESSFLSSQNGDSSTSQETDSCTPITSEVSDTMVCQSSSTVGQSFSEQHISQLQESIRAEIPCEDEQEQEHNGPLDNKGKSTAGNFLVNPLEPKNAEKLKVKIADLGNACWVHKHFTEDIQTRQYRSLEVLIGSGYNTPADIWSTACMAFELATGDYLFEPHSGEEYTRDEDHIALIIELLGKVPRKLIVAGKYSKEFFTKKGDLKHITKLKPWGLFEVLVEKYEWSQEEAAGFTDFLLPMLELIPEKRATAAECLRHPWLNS
How it was run: as §1

[12] = target: T12, YES1 (Homo sapiens, UniProt P07947)
T12 construct: purchased ThermoFisher (SelectScreen, Z'-LYTE)
T12 sequence (P07947 whole entry): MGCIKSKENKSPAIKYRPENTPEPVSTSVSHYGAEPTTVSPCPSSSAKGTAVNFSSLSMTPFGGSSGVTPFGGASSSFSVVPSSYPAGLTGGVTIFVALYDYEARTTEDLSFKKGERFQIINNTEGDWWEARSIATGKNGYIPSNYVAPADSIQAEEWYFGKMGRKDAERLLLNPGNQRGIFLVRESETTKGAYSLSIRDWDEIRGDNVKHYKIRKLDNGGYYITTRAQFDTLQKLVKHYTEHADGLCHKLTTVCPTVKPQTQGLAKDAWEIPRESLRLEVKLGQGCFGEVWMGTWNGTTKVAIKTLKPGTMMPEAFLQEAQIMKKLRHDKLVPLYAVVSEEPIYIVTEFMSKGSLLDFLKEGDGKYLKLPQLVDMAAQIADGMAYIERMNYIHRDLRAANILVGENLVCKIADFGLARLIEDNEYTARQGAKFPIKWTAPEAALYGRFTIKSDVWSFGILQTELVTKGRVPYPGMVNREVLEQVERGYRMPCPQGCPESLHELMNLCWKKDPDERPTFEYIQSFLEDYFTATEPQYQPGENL
How it was run: as §1

Row | Compound | inhibition at 10 µM [1] | inhibition at 10 µM [2] | inhibition at 10 µM [3] | inhibition at 10 µM [4] | inhibition at 10 µM [5] | inhibition at 10 µM [6] | inhibition at 10 µM [7] | inhibition at 10 µM [8] | inhibition at 10 µM [9] | inhibition at 10 µM [10] | inhibition at 10 µM [11] | inhibition at 10 µM [12] | also measured
1 | Cc1ncc(-c2nc(Nc3ccc(C(=O)NCCN4CCCCC4)cc3)ncc2F)n1C(C)C [Compound 3] | 91% | 89% | 77% | 23% | 97% | 102% | 97% | 54% | 80% | 27% | 24% | 85% | –
2 | Cc1cc(Nc2nc(N)nn2C(=O)NC(C)C)ccc1Cl [Compound 5] | 57% | -10% | 1.46% | 5% | 7% | 7% | 1.15% | -18% | -8% | 37% | 2% | 46% | –
3 | XMD8-92 [Compound 2, reference compound] | – | – | – | – | – | – | – | – | – | – | – | – | ABL1 % Inhibition ([1]; 10 µM compound, ATP Km app): 72%; CAMK2A (CaMKII alpha) % Inhibition ([2]; 10 µM compound, ATP Km app): 59%; CSNK2A2 (CK2 alpha 2) % Inhibition ([3]; 10 µM compound, ATP Km app): -1.72%; DYRK4 % Inhibition ([4]; 10 µM compound, ATP Km app): 1.2%; EPHB2 % Inhibition ([5]; 10 µM compound, ATP Km app): 18%; PRKCA (PKC alpha) % Inhibition ([6]; 10 µM compound, ATP Km app): 47%; PRKCD (PKC delta) % Inhibition ([7]; 10 µM compound, ATP Km app): -3.55%; PRKCH (PKC eta) % Inhibition ([8]; 10 µM compound, ATP Km app): 41%; PRKCQ (PKC theta) % Inhibition ([9]; 10 µM compound, ATP Km app): 52%; ROCK1 % Inhibition ([10]; 10 µM compound, ATP Km app): 16%; SRPK1 % Inhibition ([11]; 10 µM compound, ATP Km app): -3%; YES1 % Inhibition ([12]; 10 µM compound, ATP Km app): 41%
